These results are taken from article PMC10167667, “Structural and functional characterization of a multi-domain GH92 α-1,2-mannosidase from Neobacillus novalis” (Acta Crystallographica. Section D, Structural Biology, 2023).

Structures are written as SMILES.

In this experiment the target is T1, NnGH92 (Neobacillus novalis, UniProt A0A7R9KAR8).
T1 construct: full-length five-domain enzyme without native signal peptide (Ser34-Asp1411); Alcalase signal peptide then N-terminal HHHHHHPR tag kept; secreted from Bacillus subtilis
T1 sequence (A0A7R9KAR8 entry or part of it): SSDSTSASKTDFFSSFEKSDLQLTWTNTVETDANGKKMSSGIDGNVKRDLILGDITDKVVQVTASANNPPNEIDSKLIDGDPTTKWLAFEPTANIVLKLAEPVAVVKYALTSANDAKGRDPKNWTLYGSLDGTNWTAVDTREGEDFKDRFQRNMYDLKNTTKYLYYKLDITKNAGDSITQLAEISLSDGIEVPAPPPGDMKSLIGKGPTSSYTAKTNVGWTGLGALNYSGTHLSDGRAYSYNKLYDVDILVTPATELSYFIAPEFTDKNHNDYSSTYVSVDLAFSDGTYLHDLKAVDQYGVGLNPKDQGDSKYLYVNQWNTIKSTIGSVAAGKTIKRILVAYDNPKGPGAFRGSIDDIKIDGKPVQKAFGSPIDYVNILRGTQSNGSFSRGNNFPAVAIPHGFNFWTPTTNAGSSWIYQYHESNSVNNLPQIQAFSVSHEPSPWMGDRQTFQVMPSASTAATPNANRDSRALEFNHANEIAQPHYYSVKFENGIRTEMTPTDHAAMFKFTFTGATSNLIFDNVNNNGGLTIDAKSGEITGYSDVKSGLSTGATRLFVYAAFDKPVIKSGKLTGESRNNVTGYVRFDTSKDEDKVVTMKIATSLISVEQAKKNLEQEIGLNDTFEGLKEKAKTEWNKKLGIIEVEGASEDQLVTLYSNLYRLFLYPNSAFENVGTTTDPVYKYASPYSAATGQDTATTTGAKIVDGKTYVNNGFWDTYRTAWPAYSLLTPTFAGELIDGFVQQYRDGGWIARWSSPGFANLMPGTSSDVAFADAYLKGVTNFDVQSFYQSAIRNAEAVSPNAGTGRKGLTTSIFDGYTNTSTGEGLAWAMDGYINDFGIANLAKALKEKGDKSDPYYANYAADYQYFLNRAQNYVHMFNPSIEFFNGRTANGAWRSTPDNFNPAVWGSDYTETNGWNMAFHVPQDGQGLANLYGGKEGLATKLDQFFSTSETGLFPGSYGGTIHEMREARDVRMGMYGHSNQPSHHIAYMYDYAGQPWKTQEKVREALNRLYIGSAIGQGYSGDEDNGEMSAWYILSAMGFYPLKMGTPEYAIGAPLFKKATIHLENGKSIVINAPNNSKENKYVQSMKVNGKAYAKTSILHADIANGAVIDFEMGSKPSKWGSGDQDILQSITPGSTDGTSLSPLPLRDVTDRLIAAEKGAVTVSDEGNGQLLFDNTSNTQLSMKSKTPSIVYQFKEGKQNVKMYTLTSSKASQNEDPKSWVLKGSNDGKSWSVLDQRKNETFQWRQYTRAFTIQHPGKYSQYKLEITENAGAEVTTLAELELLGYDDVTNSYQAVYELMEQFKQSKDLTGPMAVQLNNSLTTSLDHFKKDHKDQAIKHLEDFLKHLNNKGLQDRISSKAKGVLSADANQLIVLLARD
Kind of experiment: X-ray crystal structure, […] Å. The conditions noted are these: co-crystallised with 5 mM mannoimidazole and 8 mM CaCl2, pH 6.6; catalytic active site (-1 subsite, Ca2+); second site in N-terminal CBM32 (chain A). The class given is binding.

With `OC[C@@H]1[C@@H](O)[C@H](O)[C@H](O)c2nccn21` [mannoimidazole], the “X-ray crystal structure, 2.3 Å” value was “solved in complex with the mannosidase inhibitor mannoimidazole (ManI; PDB entry 7nsn”.
